In experiment [1] the target is benzodiazepine site of the GABA-A receptor. Description: Benzodiazepine Receptor Binding Assay (inhibition of 3H-flunitrazepam binding). Particulars: ca. 3 nM 3H-flunitrazepam.
Experiment [2] is described as follows: Suppression of metrazol-induced convulsions. It is filed as in vivo, male CD1 mice. The following applies: mice; for ED50: Mus musculus, 0.5 h, parenteral, clonic convulsions, read-out: Antimetrazol ED50; for Metrazol (ip) ED50: Table 1, clonic convulsions after sc CD90 metrazol, >30 = active dose not determined, 30 min.
Experiment [3] in a line: Suppression of anxiety (punished licking, conflict test) in the adult male rat. The class given is in vivo, male rats. The following applies: for minimal effective dose: read-out: Conflict MED; for Conflict (ip) MED: Table 1, ip, minimum effective dose, >10 = active dose not determined. The gist of the method:
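Rats were deprived of water for 48 h and food for 24 h, with unpunished training the day before. Testing began at expected peak drug activity: 3-min session, every 20th lick punished by a 0.2-s shock.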

The mark [4] stands for this setting: Table 3, minimum effective dose.
The mark [5] stands for this setting: Table 4, minimum effective dose.
Where [6] appears, read: Table 5, minimum effective dose.
The mark [7] stands for this setting: Table 1, 25° C., 10-20 min, >10,000 = not active.

Read-outs that look alike come from different tables or passages of the source. Some results are limits rather than exact numbers.

For the compound `CN1C2=C(C(=O)Nc3ccncc3)C(=O)CCN2c2ccccc21` [compound 126], in experiment [1] (Table 3), the IC50 was determined as 230 nM. The ED50 in experiment [2] (Table 3) was found to be 3 mg/kg. In addition, in experiment [3] (setting [4]), the minimal effective dose was less than 10 mg/kg.

Take `O=C1CCN2C(=C1C(=O)Nc1ccccc1)N(Cc1ccccc1)c1ccccc12` [compound 127]: the IC50 in experiment [1] (Table 3) came out at 12 nM. For the same compound, in experiment [2] (Table 3), the ED50 is 3 mg/kg. Also, the minimal effective dose in experiment [3] (setting [4]) worked out at 10 mg/kg.

`O=C1CCN2C(=C1C(=O)Nc1ccccc1F)N(Cc1ccccc1)c1ccccc12` [compound 128] displayed an IC50 in experiment [1] (Table 3) of 88 nM. Besides, the ED50 in experiment [2] (Table 3) stood at 1 mg/kg. The minimal effective dose in experiment [3] (setting [4]) was more than 10 mg/kg.

In turn, `O=C1CCN2C(=C1C(=O)Nc1ccc(F)cc1F)N(Cc1ccccc1)c1ccccc12` [compound 129] had an IC50 in experiment [1] (Table 3) of 12 nM. The ED50 in experiment [2] (Table 3) stood at 1 mg/kg. Also, the minimal effective dose in experiment [3] (setting [4]) is more than 10 mg/kg.

Take `CCCN1C2=C(C(=O)Nc3ccccc3F)C(=O)CCN2c2ccccc21` [compound 130]: the IC50 in experiment [1] (Table 3) was less than 1 nM. Besides, in experiment [2] (Table 3), the ED50 turned out to be 0.1 mg/kg. For the same compound, the minimal effective dose in experiment [3] (setting [4]) is less than 0.3 mg/kg.

Turning to `CCCN1C2=C(C(=O)Nc3ccc(F)cc3F)C(=O)CCN2c2ccccc21` [compound 131], the IC50 in experiment [1] (Table 3) was determined as 2.6 nM. Besides, the median effective dose (ED50) in experiment [2] (Table 3) was 0.3 mg/kg. In experiment [3] (setting [4]), the minimal effective dose is less than 1 mg/kg.

`CCN1C2=C(C(=O)Nc3ccncc3)C(=O)CCN2c2ccccc21` [compound 133] yielded an IC50 in experiment [1] (Table 3) of 80 nM. For the same compound, in experiment [2] (Table 3), the ED50 was 3 mg/kg. In experiment [3] (setting [4]), the minimal effective dose is 3 mg/kg.

The compound `CC1CN2C(=C(C(=O)Nc3ccccc3)C1=O)N(C)c1ccccc12` (stereo not drawn) [compound 134] registered an IC50 in experiment [1] (Table 3) of 67 nM. In experiment [2] (Table 3), the ED50 was found to be 3 mg/kg. Besides, the minimal effective dose in experiment [3] (setting [4]) is more than 10 mg/kg.

In experiment [1] (Table 3), `CN1C2=C(C(=O)Nc3c(F)cc(F)cc3F)C(=O)CCN2c2ccccc21` [compound 135] displayed an IC50 of 13 nM. In addition, the median effective dose (ED50) in experiment [2] (Table 3) was found to be 10 mg/kg. For the same compound, the minimal effective dose in experiment [3] (setting [4]) is more than 10 mg/kg.

Regarding `CCCN1C2=C(C(=O)Nc3ccccc3)C(=O)CCN2c2ccccc21` [compound 136], the IC50 in experiment [1] (Table 3) worked out at 2.5 nM. Also, the median effective dose (ED50) in experiment [2] (Table 3) was found to be 1 mg/kg. Further, the minimal effective dose in experiment [3] (setting [4]) stood at 10 mg/kg.

Consider `CCCN1C2=C(C(=O)Nc3c(F)cc(F)cc3F)C(=O)CCN2c2ccccc21` [compound 137], for which, in experiment [1] (Table 3), the IC50 was less than 100 nM. In experiment [2] (Table 3), the ED50 is 1 mg/kg. For the same compound, the minimal effective dose in experiment [3] (setting [4]) was more than 10 mg/kg.

In turn, `O=C(Nc1ccccc1)c1c(=O)ccn2c1[nH]c1ccccc12` [compound 138] displayed an IC50 in experiment [1] (Table 4) of 24 nM. The ED50 in experiment [2] (Table 4) came to 0.5 mg/kg. Further, the minimal effective dose in experiment [3] (setting [5]) lay in the range of 1 to 10 mg/kg.

The compound `O=C(Nc1ccccc1F)c1c(=O)ccn2c1[nH]c1ccccc12` [compound 139] came in with an IC50 in experiment [1] (Table 4) of 0.23 nM. For the same compound, the ED50 in experiment [2] (Table 4) turned out to be 0.3 mg/kg. The minimal effective dose in experiment [3] (setting [5]) worked out at 0.1 mg/kg.

For `O=C(Nc1ccncc1)c1c(=O)ccn2c1[nH]c1ccccc12` [compound 140], the IC50 in experiment [1] (Table 4) was found to be 260 nM. The ED50 in experiment [2] (Table 4) was more than 10 mg/kg. Further, in experiment [3] (setting [5]), the minimal effective dose is more than 10 mg/kg.

The compound `O=C(Nc1c(F)cccc1F)c1c(=O)ccn2c1[nH]c1ccccc12` [compound 141] came in with an IC50 in experiment [1] (Table 4) of less than 1 nM. The ED50 in experiment [2] (Table 4) is less than 0.1 mg/kg. Also, the minimal effective dose in experiment [3] (setting [5]) is 0.3 mg/kg.

Regarding `Cn1c2ccccc2n2ccc(=O)c(C(=O)Nc3ccccc3)c12` [compound 142], in experiment [1] (Table 4), the 50% inhibitory concentration (IC50) is 45 nM. Besides, the ED50 in experiment [2] (Table 4) was less than 1 mg/kg. For the same compound, in experiment [3] (setting [5]), the minimal effective dose is less than 1 mg/kg.

In turn, `O=C1CCCN2C(=C1C(=O)Nc1ccccc1)Nc1ccccc12` [compound 143] registered an IC50 in experiment [1] (Table 5) of 104 nM. Further, the ED50 in experiment [2] (Table 5) is more than 10 mg/kg. For the same compound, the minimal effective dose in experiment [3] (setting [6]) was found to be 10 mg/kg.

Take `CN1C2=C(C(=O)Nc3ccccc3)C(=O)CCCN2c2ccccc21` [compound 144]: the IC50 in experiment [1] (Table 5) was 28 nM. Further, the ED50 in experiment [2] (Table 5) was more than 10 mg/kg. Also, the minimal effective dose in experiment [3] (setting [6]) was more than 10 mg/kg.

As for `O=C1CCCN2C(=C1C(=O)Nc1ccccc1)N(Cc1ccccc1)c1ccccc12` [compound 145], the IC50 in experiment [1] (Table 5) turned out to be 420 nM. Further, the ED50 in experiment [2] (Table 5) was more than 10 mg/kg. The minimal effective dose in experiment [3] (setting [6]) is more than 10 mg/kg.

As for `O=C1CCCN2C(=C1C(=O)Nc1ccccc1F)Nc1ccccc12` [compound 146], the IC50 in experiment [1] (Table 5) was found to be 3.1 nM. For the same compound, in experiment [2] (Table 5), the ED50 was in the range of 1 to 10 mg/kg. Besides, the minimal effective dose in experiment [3] (setting [6]) worked out at 10 mg/kg.

As for `CN1C2=C(C(=O)Nc3ccccc3F)C(=O)CCCN2c2ccccc21` [compound 147], the IC50 in experiment [1] (Table 5) stood at 22 nM. Further, the ED50 in experiment [2] (Table 5) is more than 10 mg/kg. Moreover, the minimal effective dose in experiment [3] (setting [6]) is more than 10 mg/kg.

The compound `O=C1CCCN2C(=C1C(=O)Nc1ccccc1F)N(Cc1ccccc1)c1ccccc12` [compound 148] registered an IC50 in experiment [1] (Table 5) of 150 nM. Besides, the ED50 in experiment [2] (Table 5) was more than 10 mg/kg. Besides, the minimal effective dose in experiment [3] (setting [6]) was more than 10 mg/kg.

Compound `CN(C)c1ccc(NC(=O)C2=C3Nc4ccccc4N3CCCC2=O)cc1` [compound 149] showed an IC50 in experiment [1] (Table 5) of 1120 nM. Besides, the ED50 in experiment [2] (Table 5) was more than 10 mg/kg. Moreover, the minimal effective dose in experiment [3] (setting [6]) was more than 10 mg/kg.

As to `CN(C)c1ccc(NC(=O)C2=C3N(C)c4ccccc4N3CCCC2=O)cc1` [compound 150], the IC50 in experiment [1] (Table 5) is 3100 nM. For the same compound, the ED50 in experiment [2] (Table 5) is more than 10 mg/kg. Moreover, the minimal effective dose in experiment [3] (setting [6]) was more than 10 mg/kg.

With `CN(C)c1ccc(NC(=O)C2=C3N(CCCC2=O)c2ccccc2N3Cc2ccccc2)cc1` [compound 151], the IC50 in experiment [1] (Table 5) came to 12400 nM. Moreover, the ED50 in experiment [2] (Table 5) was more than 10 mg/kg. The minimal effective dose in experiment [3] (setting [6]) is more than 10 mg/kg.

`O=C1CCCN2C(=C1C(=O)Nc1ccncc1)Nc1ccccc12` [compound 152]: the IC50 in experiment [1] (Table 5) came to 1460 nM. The ED50 in experiment [2] (Table 5) was more than 10 mg/kg. Moreover, in experiment [3] (setting [6]), the minimal effective dose is less than 10 mg/kg.

Turning to `CN1C2=C(C(=O)Nc3ccncc3)C(=O)CCCN2c2ccccc21` [compound 153], the IC50 in experiment [1] (Table 5) worked out at 2600 nM. Moreover, in experiment [2] (Table 5), the ED50 is more than 10 mg/kg. Besides, in experiment [3] (setting [6]), the minimal effective dose is more than 10 mg/kg.

Consider `O=C1CCCN2C(=C1C(=O)Nc1ccc(F)cc1F)Nc1ccccc12` [compound 155], for which the IC50 in experiment [1] (Table 5) was determined as 39 nM. Moreover, the ED50 in experiment [2] (Table 5) stood at 10 mg/kg. Further, the minimal effective dose in experiment [3] (setting [6]) was more than 10 mg/kg.

As for `O=C1CCCN2C(=C1C(=O)Nc1ccc(F)cc1F)N(Cc1ccccc1)c1ccccc12` [compound 156], the IC50 in experiment [1] (Table 5) is 330 nM. For the same compound, the ED50 in experiment [2] (Table 5) is more than 10 mg/kg. In addition, the minimal effective dose in experiment [3] (setting [6]) is more than 10 mg/kg.

Turning to `CN1C2=C(C(=O)Nc3c(F)cc(F)cc3F)C(=O)CCCN2c2ccccc21` [compound 157], the IC50 in experiment [1] (Table 5) stood at 53 nM. Also, the ED50 in experiment [2] (Table 5) is more than 10 mg/kg. The minimal effective dose in experiment [3] (setting [6]) was more than 10 mg/kg.

Regarding “N-(2,4-Difluorophenyl)-4-oxo-1,2,3,4-tetrahydro-6H-azepino(1,2-a)benzimidazol-5-carboxamide [CP 155]”, the half-inhibitory concentration (IC50) in experiment [1] (setting [7]) came out at 210 nM. The “Metrazol (ip) ED50” value in experiment [2] is 10 to 30 mg/kg. Moreover, the “Conflict (ip) MED” value in experiment [3] is more than 10 mg/kg.

“N-(2,6-Difluorophenyl)-3-hydroxypyrido(1,2-a)benzimidazole-4-carboxamide [CP 141]” returned an IC50 in experiment [1] (setting [7]) of 140 nM. Moreover, the “Metrazol (ip) ED50” value in experiment [2] is 10 mg/kg. Also, the “Conflict (ip) MED” value in experiment [3] was found to be 10 mg/kg.

The compound “N-(2-Fluorophenyl)-6-methyl-4-oxo-1,2,3,4-tetrahydro-6H-azepino(1,2-a)benzimidazol-5-carboxamide [CP 147]” showed an IC50 in experiment [1] (setting [7]) of 51 nM. In addition, in experiment [2], the “Metrazol (ip) ED50” value stood at 5 mg/kg. Moreover, in experiment [3], the “Conflict (ip) MED” value is 10 mg/kg.

What is called IC50 is the concentration that gives 50% inhibition. A higher IC50 goes with lower potency. What is called ED50 is the dose that gives a 50% effect, or the effect in half of the subjects.

For the origin of these results see US6218384A, “3-Oxo-pyrido(1,2-a)benzimidazole-4-carboxyl and 4-oxo-azepino(1,2-a)benzimidazole-5-carboxyl derivatives useful in treating central nervous system disorders” (Ortho-McNeil Pharmaceutical, Inc., priority 1997, dated 2001).
